According to patent US9326985B2, “Heteroaryl pyridone and aza-pyridone amide compounds” (Genentech, Inc., priority 2013, dated 2016):

These compounds were tested on CD69 by B lymphocytes in human whole blood activated with goat F(ab')2 anti-human IgM (assay: CD69 Whole Blood Assay (CD69 Hu Blood FACS)). Conditions: Homo sapiens, Lymphocyte, Table 1, anti-IgM stimulation, CD69 positive of CD20 positive cells.
Assay type: cell-based
Experimental: CD69 is a type II C-type lectin involved in lymphocyte migration and cytokine secretion.
Human blood is obtained from healthy volunteers, with the following restrictions: 1 week drug-free, non-smokers. Blood (approximately 20 mls to test 8 compounds) is collected by venipuncture into Vacutainer® (Becton, Dickinson and Co.) tubes with sodium heparin.
Solutions of Formula I compounds at 10 mM in DMSO are diluted 1:10 in 100% DMSO, then are diluted by three-fold serial dilutions in 100% DMSO for a ten point dose-response curve. The compounds are further diluted 1:10 in PBS and then an aliquot of 5.5 μl of each compound is added in duplicate to a 2 ml 96-well plate; 5.5 μl of 10% DMSO in PBS is added as control and no-stimulus wells. Human whole blood—HWB (100 μl) is added to each well. After mixing the plates are incubated at 37° C., 5% CO2, 100% humidity for 30 minutes. Goat F(ab′)2 anti-human IgM (10 μl of a 500 μg/ml solution, 50 μg/ml final) is added to each well (except the no-stimulus wells) with mixing and the plates are incubated for an additional 20 hours. At the end of the 20 hour incubation, samples are incubated with fluorescent labeled antibodies for 30 minutes, at 37° C., 5% CO2, 100% humidity. Include induced control, unstained and single stains for compensation adjustments and initial voltage settings. Samples are then lysed with PharM Lyse™ (BD Biosciences Pharmingen) according to the manufacturer's instructions. Samples are then transferred to a 96 well plate suitable to be run on the BD Biosciences HTS 96 well system on the LSRII machine. Data acquired and Mean Fluorescence Intensity values were obtained using BD Biosciences DIVA Software. Results are initially analyzed by FACS analysis software (Flow Jo).

SMILES | IC50 [µM]
Cn1cc(-c2ccnc(N3CCn4c(cc5c4CC(C)(C)C5)C3=O)c2CO)cc(NC(=O)[C@H]2C[C@H]2F)c1=O [Compound 119, (1R,2R)—N-[5-[2-(7,7-dimethyl-4-oxo-1,2,6,8-tetrahydrocyclopenta[3,4]pyrrolo[3,5-b]pyrazin-3-yl)-3-(hydroxymethyl)-4-pyridyl]-1-methyl-2-oxo-3-pyridyl]-2-fluoro-cyclopropanecarboxamide] | 0.122
Cn1cc(-c2ccnc(N3CCn4c(cc5c4CC(C)(C)C5)C3=O)c2CO)cc(NC(=O)[C@@H]2C[C@@H]2F)c1=O [Compound 120, (1S,2S)—N-[5-[2-(7,7-dimethyl-4-oxo-1,2,6,8-tetrahydrocyclopenta[3,4]pyrrolo[3,5-b]pyrazin-3-yl)-3-(hydroxymethyl)-4-pyridyl]-1-methyl-2-oxo-3-pyridyl]-2-fluoro-cyclopropanecarboxamide] | 0.0858
Cn1cc(-c2ccnc(-n3ncc4cc(C(C)(C)C)cc(F)c4c3=O)c2CO)cc(NC(=O)C2CC2)c1=O [Compound 125, N-[5-[2-(6-tert-butyl-8-fluoro-1-oxo-phthalazin-2-yl)-3-(hydroxymethyl)-4-pyridyl]-1-methyl-2-oxo-3-pyridyl]cyclopropanecarboxamide] | 0.0625

Same assay, conditions: Lymphocyte, Table 1, anti-IgM stimulation, CD69 positive of CD20 positive cells

IC50 [µM] | SMILES
1.6 | CCC(=O)Nc1cc(-c2ccnc(N3CCn4c(cc5c4CC(C)(C)C5)C3=O)c2CO)cn(C)c1=O [Compound 107, N-[5-[2-(7,7-dimethyl-4-oxo-1,2,6,8-tetrahydrocyclopenta[3,4]pyrrolo[3,5-b]pyrazin-3-yl)-3-(hydroxymethyl)-4-pyridyl]-1-methyl-2-oxo-3-pyridyl]propanamide]
0.535 | CC(=O)Nc1cc(-c2ccnc(N3CCn4c(cc5c4CC(C)(C)C5)C3=O)c2CO)cn(C)c1=O [Compound 121, N-[5-[2-(7,7-dimethyl-4-oxo-1,2,6,8-tetrahydrocyclopenta[3,4]pyrrolo[3,5-b]pyrazin-3-yl)-3-(hydroxymethyl)-4-pyridyl]-1-methyl-2-oxo-3-pyridyl]acetamide]
4.2 | Cn1cc(-c2ccnc(N3CCn4c(cc5c4CC(C)(C)C5)C3=O)c2CO)cc(NC(=O)C2CCC2)c1=O [Compound 101, N-[5-[2-(7,7-dimethyl-4-oxo-1,2,6,8-tetrahydrocyclopenta[3,4]pyrrolo[3,5-b]pyrazin-3-yl)-3-(hydroxymethyl)-4-pyridyl]-1-methyl-2-oxo-3-pyridyl]cyclobutanecarboxamide]
4.9 | Cn1cc(-c2ccnc(N3CCn4c(cc5c4CC(C)(C)C5)C3=O)c2CO)cc(NC(=O)CC2CC2)c1=O [Compound 103, 2-cyclopropyl-N-[5-[2-(7,7-dimethyl-4-oxo-1,2,6,8-tetrahydrocyclopenta[3,4]pyrrolo[3,5-b]pyrazin-3-yl)-3-(hydroxymethyl)-4-pyridyl]-1-methyl-2-oxo-3-pyridyl]acetamide]
> 5.2 | Cn1cc(-c2ccnc(N3CCn4c(cc5c4CC(C)(C)C5)C3=O)c2CO)cc(NC(=O)c2cccnc2)c1=O [Compound 109, N-[5-[2-(7,7-dimethyl-4-oxo-1,2,6,8-tetrahydrocyclopenta[3,4]pyrrolo[3,5-b]pyrazin-3-yl)-3-(hydroxymethyl)-4-pyridyl]-1-methyl-2-oxo-3-pyridyl]pyridine-3-carboxamide]

Same assay, conditions: Lymphocyte, Table 2, anti-IgM stimulation, CD69 positive of CD20 positive cells

IC50 [µM] | SMILES
> 6.3 | Cn1cc(-c2ccnc(N3CCn4c(cc5c4CC(C)(C)C5)C3=O)c2CO)cc(NC(=O)[C@@H]2CCCO2)c1=O (stereo in doubt) [Compound 149, (2S)—N-[5-[2-(7,7-dimethyl-4-oxo-1,2,6,8-tetrahydrocyclopenta[3,4]pyrrolo[3,5-b]pyrazin-3-yl)-3-(hydroxymethyl)-4-pyridyl]-1-methyl-2-oxo-3-pyridyl]tetrahydrofuran-2-carboxamide]
> 4.3 | Cn1cc(-c2ccnc(N3CCc4c(cc5n4CCCC5)C3=O)c2CO)cc(NC(=O)C2CC2)c1=O [Compound 133, N-[5-[3-(hydroxymethyl)-2-(1-oxo-3,4,6,7,8,9-hexahydropyrido[3,4-b]indolizin-2-yl)-4-pyridyl]-1-methyl-2-oxo-3-pyridyl]cyclopropanecarboxamide]
> 6.1 | Cn1cc(-c2ccnc(N3CCn4c(cc5c4CC(C)(C)C5)C3=O)c2CO)cc(NC(=O)[C@H]2CCCO2)c1=O (stereo in doubt) [Compound 148, (2R)—N-[5-[2-(7,7-dimethyl-4-oxo-1,2,6,8-tetrahydrocyclopenta[3,4]pyrrolo[3,5-b]pyrazin-3-yl)-3-(hydroxymethyl)-4-pyridyl]-1-methyl-2-oxo-3-pyridyl]tetrahydrofuran-2-carboxamide]
1.9 | CCCC(=O)Nc1cc(-c2ccnc(N3CCn4c(cc5c4CC(C)(C)C5)C3=O)c2CO)cn(C)c1=O [Compound 163, N-[5-[2-(7,7-dimethyl-4-oxo-1,2,6,8-tetrahydrocyclopenta[3,4]pyrrolo[3,5-b]pyrazin-3-yl)-3-(hydroxymethyl)-4-pyridyl]-1-methyl-2-oxo-3-pyridyl]butanamide]
4.2 | Cn1cc(-c2ccnc(N3CCn4c(cc5c4CC(C)(C)C5)C3=O)c2CO)cc(NC(=O)C2(F)CC2)c1=O [Compound 134, N-[5-[2-(7,7-dimethyl-4-oxo-1,2,6,8-tetrahydrocyclopenta[3,4]pyrrolo[3,5-b]pyrazin-3-yl)-3-(hydroxymethyl)-4-pyridyl]-1-methyl-2-oxo-3-pyridyl]-1-fluoro-cyclopropanecarboxamide]
> 4.4 | COCC(=O)Nc1cc(-c2ccnc(N3CCn4c(cc5c4CC(C)(C)C5)C3=O)c2CO)cn(C)c1=O [Compound 157, N-[5-[2-(7,7-dimethyl-4-oxo-1,2,6,8-tetrahydrocyclopenta[3,4]pyrrolo[3,5-b]pyrazin-3-yl)-3-(hydroxymethyl)-4-pyridyl]-1-methyl-2-oxo-3-pyridyl]-2-methoxy-acetamide]
> 3.4 | Cn1cc(-c2ccnc(N3CCn4c(cc5c4CC(C)(C)C5)C3=O)c2CO)cc(NC(=O)C2(O)CC2)c1=O [Compound 135, N-[5-[2-(7,7-dimethyl-4-oxo-1,2,6,8-tetrahydrocyclopenta[3,4]pyrrolo[3,5-b]pyrazin-3-yl)-3-(hydroxymethyl)-4-pyridyl]-1-methyl-2-oxo-3-pyridyl]-1-hydroxy-cyclopropanecarboxamide]

Same assay, conditions: Table 1, anti-IgM stimulation, CD69 positive of CD20 positive cells

SMILES | IC50 [µM]
Cn1cc(-c2ccnc(N3CCn4c(cc5c4CC(C)(C)C5)C3=O)c2CO)cc(NC(=O)C2CC2F)c1=O (centres unmarked) [Compound 118, N-[5-[2-(7,7-dimethyl-4-oxo-1,2,6,8-tetrahydrocyclopenta[3,4]pyrrolo[3,5-b]pyrazin-3-yl)-3-(hydroxymethyl)-4-pyridyl]-1-methyl-2-oxo-3-pyridyl]-2-fluoro-cyclopropanecarboxamide] | 0.219
Cn1cc(-c2ccnc(N3CCn4c(cc5c4CC(C)(C)C5)C3=O)c2CO)cc(NC(=O)C2CC2F)c1=O (centres unmarked) [Compound 117, N-[5-[2-(7,7-dimethyl-4-oxo-1,2,6,8-tetrahydrocyclopenta[3,4]pyrrolo[3,5-b]pyrazin-3-yl)-3-(hydroxymethyl)-4-pyridyl]-1-methyl-2-oxo-3-pyridyl]-2-fluoro-cyclopropanecarboxamide] | 0.567
